# Laboratory results from patent US20240247080A1, “GLP1/GIP/NPY2 RECEPTOR TRIPLE AGONISTS” (Boehringer Ingelheim International GmbH, priority 2022, published 2024).
# Read-outs that look alike come from different tables or passages of the source. Starred links: 1 amine or outer side, 2 acyl side, 3 side chain; linkers in the order of their positions; H or OH if unused. Positions of bridges follow the written chain, without caps; N, C: chain ends. Non-standard residues stand in square brackets, D forms with d. Groups on a side chain read outwards from the residue. Chains are numbered I, II in the order given. No end group written: not given here. *: point of attachment. C20 diacid = O=C(O)CCCCCCCCCCCCCCCCCCC(=O)*; C18 diacid = O=C(O)CCCCCCCCCCCCCCCCC(=O)*; γGlu = O=C(O)[C@H](CCC(=O)[*:2])N[*:1]; εLys = N[C@@H](CCCCN[*:1])C(=O)[*:2]; NMeR = CN[C@@H](CCCNC(=N)N)C(=O)O; AEEA = NCCOCCOCC(=O)O; Aib = CC(C)(N)C(=O)O; Ahx = NCCCCCC(=O)O
# Tests used:
# hGIPR = biological target: T1, hGIPR (Homo sapiens, UniProt P48546); experiment: hGIPR CreLuc reporter gene assay in 0.5% and 100% plasma; assay type: cell-based; conditions: CreLuc reporter gene assay
# T1 construct: expressed in transfected cells; host or cells: CHO cells carrying a CRE-luciferase reporter gene
# T1 sequence (P48546 22-466): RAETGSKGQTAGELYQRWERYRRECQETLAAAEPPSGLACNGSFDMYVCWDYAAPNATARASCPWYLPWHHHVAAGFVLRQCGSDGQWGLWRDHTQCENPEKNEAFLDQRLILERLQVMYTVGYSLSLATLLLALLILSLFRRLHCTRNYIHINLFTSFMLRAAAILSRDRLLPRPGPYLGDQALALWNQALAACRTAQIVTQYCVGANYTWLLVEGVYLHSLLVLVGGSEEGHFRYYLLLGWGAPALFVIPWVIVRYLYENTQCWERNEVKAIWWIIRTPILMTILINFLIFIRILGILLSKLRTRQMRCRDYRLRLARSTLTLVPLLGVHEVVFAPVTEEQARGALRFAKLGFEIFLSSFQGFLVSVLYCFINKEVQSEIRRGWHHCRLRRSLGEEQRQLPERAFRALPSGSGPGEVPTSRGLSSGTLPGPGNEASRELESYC
# Source text: (§1) Example 1: hGLPR/hGIPR/hNPY2R CreLuc Assay in 0.5% and 100% Plasma
# (§2) CHO and HEK-293 recombinant cell lines express a luciferase reporter gene under control of the cAMP responsive element (CRE). As a second recombinant protein the GLP-1 and NPY2 receptors were expressed in the reporter gene HEK cells, and the GIP receptor was expressed in the reporter gene CHO cells, respectively. Stimulation of these recombinant cells with an agonist leads to an increase of intracellular cAMP levels. In the presence of cAMP, the transcription factor CRE binding protein (CREB) binds to the CRE and to the CREB binding protein (CBP), which leads to transcription of the luciferase reporter gene. Peptides upon serial-dilution in 100% DMSO were transferred into 384-well assay plates with 5 μl pre-dispensed assay buffer (1×HBSS, 20 mM HEPES, pH7.4 supplemented with 0.5% human plasma) using acoustic dispensing on a Labcyte ECHO. Cryo-preserved transgenic reporter gene cells were thawed in assay buffer. 20 μl (10.000 cells/well) were added to the plate with the peptides and incubated for 4 hours at 37° C. in a humidified incubator. Following incubation, assay plates are equilibrated to room temperature, followed by addition of 25 μl of Bright-GIo™ Luciferase reagent, incubation at room temperature for 10 minutes and analysis of luminescence (Envision Reader). Concentration response evaluation of compounds was performed with 8 concentrations of peptides (covering four decades). EC50 values were calculated by non-linear regression using sigmoid concentration-response with variable slope. The same assays were run in the presence of 100% plasma with no additional buffer constituents.
# hGLP1R = biological target: T2, hGLP1R (Homo sapiens, UniProt P43220); experiment: hGLP1R CreLuc reporter gene assay in 0.5% and 100% plasma; assay type: cell-based; conditions: CreLuc reporter gene assay
# T2 construct: expressed in transfected cells; host or cells: HEK-293 cells carrying a CRE-luciferase reporter gene
# T2 sequence (P43220 24-463): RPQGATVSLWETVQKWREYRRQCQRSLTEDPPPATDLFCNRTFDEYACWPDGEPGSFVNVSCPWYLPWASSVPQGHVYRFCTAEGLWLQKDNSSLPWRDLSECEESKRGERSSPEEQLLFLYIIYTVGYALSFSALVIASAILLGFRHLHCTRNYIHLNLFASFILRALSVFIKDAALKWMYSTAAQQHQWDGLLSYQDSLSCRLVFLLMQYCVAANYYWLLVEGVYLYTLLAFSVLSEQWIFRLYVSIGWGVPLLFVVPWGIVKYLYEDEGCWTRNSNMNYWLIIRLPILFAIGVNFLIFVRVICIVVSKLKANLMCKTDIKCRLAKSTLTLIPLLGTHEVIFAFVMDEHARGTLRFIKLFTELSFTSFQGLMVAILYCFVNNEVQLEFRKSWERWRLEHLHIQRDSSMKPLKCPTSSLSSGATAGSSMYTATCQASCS
# Source text: as §1, §2
# [1] = 0.5% human plasma, read-out: hGIPR 0.5% hP
# [2] = 100% human plasma, read-out: hGIPR 100% hP
# [3] = 0.5% human plasma, read-out: hGLP1R 0.5% hP
# [4] = 100% human plasma, read-out: hGLP1R 100% hP
Substance,EC50 (hGIPR; [1]) [nM],EC50 (hGIPR; [2]) [nM],EC50 (hGLP1R; [3]) [nM],EC50 (hGLP1R; [4]) [nM]
"H-Y[Aib]EGTFTSDYSI[Aib]LEKQAQ[Aib]AFVEWLIK([εLys-γGlu-γGlu-γGlu-γGlu-γGlu-γGlu-C20 diacid])GGPSSGASLRHYYN[Aib]LTRQRY-NH2 [Compound 218, Y-Aib-E-G-T-F-T-S-D-Y-S-I-Aib-L-E-K-Q-A-Q-Aib-A-F-V-E-W-L-I-K(1,3)-G-G-P-S-S-G-A-S-L-R-H-Y-Y-N-Aib-L-T-R-Q-R-Y-NH2.C20DA-gGlu-gGlu-gGlu-gGlu-gGlu-gGlu-eLys(1,2)]",0.36,2.35,0.16,–
"H-Y[Aib]EGTFTSDYSI[Aib]LEDQAQ[Aib]AFVEWLIK([εLys-γGlu-γGlu-γGlu-γGlu-γGlu-γGlu-C20 diacid])GGPSSGASLRHYYNWLTRQRY-NH2 [Compound 90, Y-Aib-E-G-T-F-T-S-D-Y-S-I-Aib-L-E-D-Q-A-Q-Aib-A-F-V-E-W-L-I-K(1,3)-GGPSSGASLRHYYNWLTRQRY-NH2.C20DA-gGlu-gGlu-gGlu-gGlu-gGlu-gGlu-eLys(1,2)]",1.03,–,0.3,–
"H-Y[Aib]EGTFTSDYSI[Aib]LEKQAQ[Aib]AFVEWLIK([AEEA-AEEA-γGlu-γGlu-γGlu-γGlu-γGlu-C18 diacid])GGPSSGASLRHYYNWLTRQRY-NH2 [Compound 261, Y-Aib-E-G-T-F-T-S-D-Y-S-I-Aib-L-E-K-Q-A-Q-Aib-A-F-V-E-W-L-I-K(1,3)-GGPSSGASLRHYYNWLTRQRY-NH2.C18DA-gGlu-gGlu-gGlu-gGlu-gGlu-OEG-OEG(1,2)]",0.18,1.15,0.15,–
"H-Y[Aib]EGTFTSDYSI[Aib]LEKQAQ[Aib]AFVEWLIK([εLys-γGlu-γGlu-γGlu-γGlu-γGlu-γGlu-C20 diacid])GGPSSGAS[Aib]RHYYNWLTRQ[NMeR]Y-NH2 [Compound 39, Y-Aib-E-G-T-F-T-S-D-Y-S-I-Aib-L-E-K-Q-A-Q-Aib-A-F-V-E-W-L-I-K(1,3)-G-G-P-S-S-G-A-S-Aib-R-H-Y-Y-N-W-L-T-R-Q-NMeR-Y-NH2.C20DA-gGlu-gGlu-gGlu-gGlu-gGlu-gGlu-eLys(1,2)]",0.06,0.4,0.09,0.82
"H-Y[Aib]EGTFTSDYSI[Aib]LEKQAQ[Aib]AFVEWLIK([εLys-γGlu-γGlu-γGlu-γGlu-γGlu-γGlu-C20 diacid])GGPSSGASLRHYYNLLTRQRY-NH2 [Compound 195, Y-Aib-E-G-T-F-T-S-D-Y-S-I-Aib-L-E-K-Q-A-Q-Aib-A-F-V-E-W-L-I-K(1,3)-GGPSSGASLRHYYNLLTRQRY-NH2.C20DA-gGlu-gGlu-gGlu-gGlu-gGlu-gGlu-eLys(1,2)]",0.25,1.42,0.13,–
"H-Y[Aib]EGTFTSDYSI[Aib]LEKQAQ[Aib]AFVEWLIK([Ahx-γGlu-γGlu-γGlu-γGlu-γGlu-C18 diacid])GGPSEGASLRHYYNWLTRQRY-NH2 [Compound 304, Y-Aib-E-G-T-F-T-S-D-Y-S-I-Aib-L-E-K-Q-A-Q-Aib-A-F-V-E-W-L-I-K(1,3)-GGPSEGASLRHYYNWLTRQRY-NH2.C18DA-gGlu-gGlu-gGlu-gGlu-gGlu-AHX(1,2)]",0.23,2.35,0.35,–
"H-Y[Aib]EGTFTSDYSI[Aib]LEKQAQ[Aib]AFVEWLIK([εLys-γGlu-γGlu-γGlu-γGlu-γGlu-γGlu-C20 diacid])GGPSSAVSLRHYYNWLTRQRY-NH2 [Compound 33, Y-Aib-E-G-T-F-T-S-D-Y-S-I-Aib-L-E-K-Q-A-Q-Aib-A-F-V-E-W-L-I-K(1,3)-GGPSSAVSLRHYYNWLTRQRY-NH2.C20DA-gGlu-gGlu-gGlu-gGlu-gGlu-gGlu-eLys(1,2)]",0.25,–,0.14,3.17

# More lines, now with the values ahead:
EC50 (hGIPR; [1]) [nM],EC50 (hGIPR; [2]) [nM],EC50 (hGLP1R; [3]) [nM],EC50 (hGLP1R; [4]) [nM],Substance
0.36,0.56,0.11,3.95,"H-Y[Aib]EGTFTSDYSI[Aib]LEKQAQ[Aib]AFVQWLIK([εLys-γGlu-γGlu-γGlu-γGlu-γGlu-C20 diacid])GGPESGASLRHYYNWLTRQRY-NH2 [Compound 61, Y-Aib-E-G-T-F-T-S-D-Y-S-I-Aib-L-E-K-Q-A-Q-Aib-A-F-V-Q-W-L-I-K(1,3)-GGPESGASLRHYYNWLTRQRY-NH2.C20DA-gGlu-gGlu-gGlu-gGlu-gGlu-eLys(1,2)]"
0.33,0.91,0.3,–,"Y[Aib]EGTFTSDYSI[Aib]LEKQAQ[Aib]EFVQWLIK([AEEA-AEEA-γGlu-γGlu-γGlu-C18 diacid])GGPSEGASLRHYYNWLTRQRY-NH2 [Compound 160, Y-Aib-E-G-T-F-T-S-D-Y-S-I-Aib-L-E-K-Q-A-Q-Aib-E-F-V-Q-W-L-I-K(1,3)-GGPSEGASLRHYYNWLTRQRY-NH2.C18DA-gGlu-gGlu-gGlu-OEG-OEG(1,2)]"
0.18,1.17,0.14,–,"H-Y[Aib]EGTFTSDYSI[Aib]LEKQAQ[Aib]AFVQWLIK([AEEA-AEEA-γGlu-γGlu-γGlu-γGlu-C18 diacid])GGPEEPASLRHYYNWLTRQRY-NH2 [Compound 57, Y-Aib-E-G-T-F-T-S-D-Y-S-I-Aib-L-E-K-Q-A-Q-Aib-A-F-V-Q-W-L-I-K(1,3)-GGPEEPASLRHYYNWLTRQRY-NH2.C18DA-gGlu-gGlu-gGlu-gGlu-OEG-OEG(1,2)]"
0.71,–,–,–,"H-Y[Aib]EGTFTSDYSI[Aib]LEKQAQ[Aib]EFVEWLIK([Ahx-γGlu-γGlu-γGlu-γGlu-γGlu-γGlu-C18 diacid])GGPSEGASLRHYYNWLTRQRY-NH2 [Compound 279, Y-Aib-E-G-T-F-T-S-D-Y-S-I-Aib-L-E-K-Q-A-Q-Aib-E-F-V-E-W-L-I-K(1,3)-GGPSEGASLRHYYNWLTRQRY-NH2.C18DA-gGlu-gGlu-gGlu-gGlu-gGlu-gGlu-AHX(1,2)]"
0.25,1.66,0.09,–,"H-Y[Aib]EGTFTSDYSI[Aib]LEKQAQ[Aib]AFVEWLIK([εLys-γGlu-γGlu-γGlu-γGlu-γGlu-γGlu-C20 diacid])GGPSSGAS[Aib]RHY[Aib]NR[Aib]TRQRY-NH2 [Compound 4, Y-Aib-E-G-T-F-T-S-D-Y-S-I-Aib-L-E-K-Q-A-Q-Aib-A-F-V-E-W-L-I-K(1,3)-G-G-P-S-S-G-A-S-Aib-R-H-Y-Aib-N-R-Aib-T-R-Q-R-Y-NH2.C20DA-gGlu-gGlu-gGlu-gGlu-gGlu-gGlu-eLys(1,2)]"
0.33,–,0.15,–,"I: H-Y[Aib]EGTFTSDYSI[Aib]LEKQAQ[Aib]AFVEWLIKGGPSEGASLRHYYNWLTRQRY-NH2 / II: {C18 diacid}-EEEEEE (amide I:28-II:C) [Compound 302, Y-Aib-E-G-T-F-T-S-D-Y-S-I-Aib-L-E-K-Q-A-Q-Aib-A-F-V-E-W-L-I-K(1,3)-GGPSEGASLRHYYNWLTRQRY-NH2.C18DA-E-E-E-E-E-E(1,2)]"
0.94,–,–,–,"H-Y[Aib]EGTFTSDYSI[Aib]LE[Aib]QAQ[Aib]AFVEWLIK([εLys-γGlu-γGlu-γGlu-γGlu-γGlu-γGlu-C20 diacid])GGPSSGASLRHYYNWLTRQRY-NH2 [Compound 199, Y-Aib-E-G-T-F-T-S-D-Y-S-I-Aib-L-E-Aib-Q-A-Q-Aib-A-F-V-E-W-L-I-K(1,3)-GGPSSGASLRHYYNWLTRQRY-NH2.C20DA-gGlu-gGlu-gGlu-glu-gGlu-gGlu-eLys(1,2)]"
0.24,1.44,0.11,–,"H-Y[Aib]EGTFTSDYSI[Aib]LEKQAQ[Aib]AFVQWLIK([εLys-γGlu-γGlu-γGlu-γGlu-γGlu-γGlu-C20 diacid])GGPESGASLRHYYNWLTRQRY-NH2 [Compound 37, Y-Aib-E-G-T-F-T-S-D-Y-S-I-Aib-L-E-K-Q-A-Q-Aib-A-F-V-Q-W-L-I-K(1,3)-GGPESGASLRHYYNWLTRQRY-NH2.C20DA-gGlu-gGlu-gGlu-gGlu-gGlu-gGlu-eLys(1,2)]"
0.62,2.62,–,–,"H-Y[Aib]EGTFTSDYSI[Aib]LEKQAQ[Aib]EFVEWLIK([γGlu-γGlu-γGlu-γGlu-C20 diacid])GGPSEGASLRHYYNWLTRQRY-NH2 [Compound 271, Y-Aib-E-G-T-F-T-S-D-Y-S-I-Aib-L-E-K-Q-A-Q-Aib-E-F-V-E-W-L-I-K(1,3)-GGPSEGASLRHYYNWLTRQRY-NH2.C20DA-gGlu-gGlu-gGlu-gGlu(1,2)]"
